This is an account of results in patent publication US20250339391A1, “METHODS FOR EFFECTIVE MANAGEMENT OF PAIN” (South Rampart Pharma, Inc., priority 2024, published 2025).

A short description of series [1]: Jet milling and nano-milling: particle size and solubility. Format: physicochemical. As to the method: In certain instances, a crystalline compound of Formula I is jet milled. Thereafter, the milled compound of Formula I is dispersed in a solution comprising 1% hydroxypropyl cellulose (1% HPC) and sterile water for injection and subjected to wet milling. The target particle size is approximately D90 0.15 μm. The disclosure provides using nanomilling and jet-milling techniques, to prepare an oral nanoparticle suspension containing 100 mg/mL SRP-001 in preserved aqueous 1% HPC. An oral nanoparticle suspension containing 100 mg/mL SRP-001 in aqueous 1% HPC preserved with 0.1% sodium benzoate was used.
(§1) The drug therapeutic candidate is manufactured in a two-step process (Latitude Pharmaceuticals, Inc., San Diego, CA USA). First, SRP-001 is jet milled. Second, the milled API is dispersed in a solution comprising 1% hydroxypropyl cellulose (1% HPC) and sterile water for injection and subjected to wet milling. The target particle size is approximately D90 0.15 μm. […] An oral nanoparticle suspension containing 100 mg/mL SRP-001 in aqueous 1% HPC preserved with 0.1% sodium benzoate was manufactured for use in nonclinical studies as Lot LPI2021028 and stored at 5° C.±3° C. […] The same formulation as above was manufactured under cGMP for use in clinical studies as Lot LPI2021031 and stored at 5° C.±3° C. […] This lot has been placed on stability at 5° C., 25° C./60% RH, and 40° C./75% RH. Finally, an appearance-matched placebo consisting of 2% microcrystalline cellulose in aqueous 1% HPC preserved with 0.1% sodium benzoate and 0.05% EDTA disodium dihydrate was manufactured under cGMP for use in clinical studies. The above oral suspensions were manufactured by Latitude Pharmaceuticals Inc. (San Diego, CA, USA).

A further series deals with Beagle dogs. Briefly: Single oral dose (capsule) toxicity and pharmacokinetic study in Beagle dogs (non-GLP). Format: in vivo. As to the method:
2) A Single Oral Dose Toxicity and Pharmacokinetic Study of SRP-001 in Beagle Dogs (non-GLP) SRP-001 was prepared into capsules for oral administration. Three experimentally non-naïve Beagle dogs, at least 7 months old and weighing 7.7 to 10 kg prior to treatment initiation, were administered a single dose of 300 mg/kg SRP-001 (Calvert Labs/Altasciences, Scott Township, PA USA). On the day of dosing, animals were observed prior to dose administration, approximately 1-3 h post-dose, and once on day 2. Body weights were recorded for all animals prior to dose administration for the preparation of the capsules. Blood for bioanalytical evaluation was collected at selected timepoints on day 1. Following the completion of the study, surviving animals were not euthanized. They were returned to the Calvert colony for an appropriate washout period before possible use in a subsequent study. […] Plasma samples were collected at seven different time points post-dose.

For another series, the system named is dog. As to conditions: in vivo. Here is the method:
To determine the appropriate doses, maximum tolerated dose studies (non-GLP) were conducted prior to the definitive GLP systemic toxicity studies. SRP-001 was evaluated by a full battery of GLP-compliant toxicity studies. Systemic toxicity was evaluated in Sprague-Dawley rats and Beagle dogs by oral administration over 28 days (FIG. 24 and FIGS. 27-28, Table 2). […]

The test system of the next series is Male rats. Briefly: Rat micronucleus in vivo study. Here is the method:
The induction of numerical aberrations was within the 95% control limit of the historical negative control data. […] Approximately 48 h after the second dose administration, peripheral blood was collected for flow cytometric analysis of micronuclei. There was no significant increase in the incidence of micronuclei in the test article-dosed animals compared to the concurrent vehicle control. The vehicle control value was compatible with the historical range of % micronucleated reticulocytes (MnRETs). There was a statistically significant increase in MnRETs in the positive control compared to the concurrent vehicle control. […] The vehicle control was 10% Labrasol, 10% DMSO, and 80% PEG400. The positive control for the Comet assay, ethyl methanesulfonate (EMS), was orally administered at 200 mg/kg/dose for two consecutive days at a dose volume of 10 mL/kg/dose. […] Animals were euthanized 3-4 h after the last dose administration. The liver and glandular stomach were collected and processed for comet evaluation.

Series [2] is described as follows: Genotoxicity battery, weight of the evidence. Conditions: Ames, chromosomal aberration, micronucleus and Comet assays. As to the method: To transition SRP-001 into the clinic for human use, a full set of in vivo and in vitro genotoxicity studies were performed to assess the potential genotoxicity of SRP-001.
To further evaluate the potential genotoxicity of SRP-001 and determine the validity of the in vitro findings, a second in vivo assay, a GLP-compliant Comet assay, was conducted in accordance with ICH S2(R1) Guidance on Genotoxicity Testing and Data Interpretation for Pharmaceuticals Intended for Human Use. […] SRP-001 was tested to evaluate its mutagenic potential by measuring its ability to induce reverse mutations at selected loci of several strains of Salmonella typhimurium (S. typhimurium) and at the tryptophan locus of Escherichia coli (E. coli) strain WP2 uvrA in the presence and absence of an exogenous metabolic activation system (Bioreliance, Rockville, MD USA). Dimethyl sulfoxide (10% DMSO) was used as the vehicle. The dose levels tested in the preliminary toxicity assay were 6.67, 10.0, 33.3, 66.7, 100, 333, 667, 1000, 3333, and 5000 μg per plate. No precipitate was observed. […] The dose levels tested in the mutagenicity assay were 100, 333, 667, 1000, 3333, and 5000 μg per plate. […] In the preliminary toxicity assay, the doses tested ranged from 0.0405 to 405 μg/mL (1 mM), which was the limit dose for this assay (Bioreliance, Rockville, MD USA).

Series [3] is described as follows: Stability of API and oral nanosuspension. Format: physicochemical. As to the method:
as §1

SMILES strings stand for the structures. “Also recorded” adds a separate entry of the source.

Regarding `CCN(CC)C(=O)c1ccccc1S(=O)(=O)NCC(=O)Nc1ccc(O)cc1` [SRP-001, N,N-diethyl-2-[[2-(4-hydroxyanilino)-2-oxo-ethyl]sulfamoyl]benzamide], the solubility result in series [1] (after jet milling and nano-milling) is recorded as “increase the solubility”. Besides, the particle size is 0.1666 μm in series [1] (after jet milling and nano-milling for 17 h (FIG. 25A)); 879.33 μm in series [1] (before milling (FIG. 25B)). Moreover, the tolerability entry in the series with Beagle dogs (dog, in vivo, 300 mg/kg) was “well tolerated”. Also, in the series on Beagle dogs (single 300 mg/kg, capsules), the bioavailability result was “poor bioavailability”. In the series on dog, the “mortality after single doses” value was “did not result in any mortality”. Moreover, the “incidence of micronuclei / clastogenicity” value in the series on Male rats (500, 1,000 and 2,000 mg/kg/d oral, two days) is on record as “negative (non-clastogenic)”. Moreover, the “% RETs” value in the series with Male rats (treatment groups) is given as “Statistically significant decreases in % RETs”. For the same compound, in series [2], the “genotoxicity, overall conclusion” value is recorded as “not genotoxic; also recorded: negative for genotoxicity”. For the same compound, the “API stable for” value in series [3] (25° C./60% RH) is recorded as “at least 9 months”; in series [3] (40° C./75% RH), at least 6 months.
